Patent US9028845B2, “Chimeric immunomodulatory compounds and methods of using the same-IV” (Dynavax Technologies Corporation, priority 2001, dated 2015)
No end group written: not given here.

Tested on: human PBMCs
Assay: Human PBMC cytokine response assay (IFN-γ and IFN-α in cell-free medium by ELISA), with or without cPLGA;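 for IFN-α (pg/ml) mean: 20 µg/mL compound for 24 hours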;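 for IFN-γ (pg/ml) mean: 20 µg/mL compound for 24 hours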
Format: cell-based
Conditions: for IFN-α (pg/ml) mean / IFN-γ (pg/ml) mean: mean of donors 110, 112, 119, 120; for IFN-α induction, in words: used alone; for immunomodulatory activity (IFN-γ / IFN-α secretion), in words: used alone (no cPLGA)
[1] = Table 24, mean of donors 28234-28237
[2] = Table 25, donor 28250, polynucleotides/spacers at amounts equivalent to the CIC, spacers alone 9 uM
[3] = Table 25, mean of donors 28250-28253
[4] = Table 26, mean of donors 28313-28316
[5] = mean of donors 28185-28188, Table 15

5′-TCGACTC-3′-HEG-5′-TCGAGCG-3′-HEG-5′-TTCTCTT-3′ [Compound C-63]
IFN-α (donor 110, Table 14): 294 pg/mL | IFN-γ (donor 110, Table 14): 1536 pg/mL | IFN-α (donor 112, Table 14): 38 pg/mL | IFN-γ (donor 112, Table 14): 376 pg/mL | IFN-α (donor 119, Table 14): 464 pg/mL | IFN-γ (donor 119, Table 14): 80 pg/mL | IFN-α (donor 120, Table 14): 228 pg/mL | IFN-γ (donor 120, Table 14): 60 pg/mL | IFN-α (pg/ml) mean (Table 14): 256 pg/mL | IFN-γ (pg/ml) mean (Table 14): 513 pg/mL

5′-TCGTCG-3′-HEG-5′-ACGTTCG-3′-HEG-5′-AGATGAT-3′-TEG [Compound C-29]
IFN-α (Table 9, donor 28089): 75 pg/mL | IFN-γ (Table 9, donor 28089): 63 pg/mL | IFN-α (Table 9, donor 28090): 92 pg/mL | IFN-γ (Table 9, donor 28090): 50 pg/mL | IFN-α (Table 9, donor 28098): 359 pg/mL | IFN-γ (Table 9, donor 28098): 150 pg/mL | IFN-α (Table 9, donor 28099): 332 pg/mL | IFN-γ (Table 9, donor 28099): 177 pg/mL | IFN-α mean (Table 9, mean of donors): 214 pg/mL | IFN-γ mean (Table 9, mean of donors): 110 pg/mL

5′-TCGTCGA-3′-C3-5′-TCGTCGA-3′-C3-5′-TCGTCGA-3′ all phosphorothioate linkages [Compound C-33]
IFN-α (Table 9, donor 28089): 56 pg/mL | IFN-γ (Table 9, donor 28089): 0 pg/mL | IFN-α (Table 9, donor 28090): 22 pg/mL | IFN-γ (Table 9, donor 28090): 0 pg/mL | IFN-α (Table 9, donor 28098): 34 pg/mL | IFN-γ (Table 9, donor 28098): 0 pg/mL | IFN-α (Table 9, donor 28099): 30 pg/mL | IFN-γ (Table 9, donor 28099): 3 pg/mL | IFN-α mean (Table 9, mean of donors): 36 pg/mL | IFN-γ mean (Table 9, mean of donors): 1 pg/mL | IFN-α (Table 24, donor 28234): 16 pg/mL | IFN-γ (Table 24, donor 28234): 23 pg/mL | IFN-α (Table 24, donor 28235): 16 pg/mL | IFN-γ (Table 24, donor 28235): 86 pg/mL | IFN-α (Table 24, donor 28236): 16 pg/mL | IFN-γ (Table 24, donor 28236): 247 pg/mL | IFN-α (Table 24, donor 28237): 91 pg/mL | IFN-γ (Table 24, donor 28237): 2076 pg/mL | IFN-α mean [1]: 35 pg/mL | IFN-γ mean [1]: 608 pg/mL

5′-TCGACGT-3′ [Compound P-14, reference compound]
IFN-a (Table 25, donor 28250): 16 pg/mL | IFN-g [2]: 10 pg/mL | IFN-a (Table 25, donor 28251): 16 pg/mL | IFN-g (Table 25, donor 28251): 34 pg/mL | IFN-a (Table 25, donor 28252): 16 pg/mL | IFN-g (Table 25, donor 28252): 11 pg/mL | IFN-a (Table 25, donor 28253): 16 pg/mL | IFN-g (Table 25, donor 28253): 10 pg/mL | IFN-a mean [3]: 16 pg/mL | IFN-g mean [3]: 16 pg/mL

(5′-TCGACGT-3′-HEG)x-Ficoll400 (X range = 150-250, ave. 185) See example 49 (not fully specified (C-terminus); cysteine pairing not given here; also: about 185 copies attached to Ficoll400) [Compound C-137]
IFN-a (Table 26, donor 28313): 3612 pg/mL | IFN-g (Table 26, donor 28313): 1 pg/mL | IFN-a (Table 26, donor 28314): 5468 pg/mL | IFN-g (Table 26, donor 28314): 22 pg/mL | IFN-a (Table 26, donor 28315): 624 pg/mL | IFN-g (Table 26, donor 28315): 13 pg/mL | IFN-a (Table 26, donor 28316): 4000 pg/mL | IFN-g (Table 26, donor 28316): 54 pg/mL | IFN-g mean ×4 (Table 26, mean multiplied by 4): 90 pg/mL | IFN-a mean [4]: 3426 pg/mL | IFN-g mean [4]: 22 pg/mL | IFN-α induction, in words: significant stimulation of IFN-α | immunomodulatory activity (IFN-γ / IFN-α secretion), in words: striking activity in the cytokine response assays

TMEA-(5′-TGACTGTGAACGTTCGAGATGA-3′)3 (SEQ ID NO: 139) (See Ex. 23) [Compound C-99]
IFN-α (donor 110, Table 14): 22 pg/mL | IFN-γ (donor 110, Table 14): 276 pg/mL | IFN-α (donor 112, Table 14): 4 pg/mL | IFN-γ (donor 112, Table 14): 12 pg/mL | IFN-α (donor 119, Table 14): 86 pg/mL | IFN-γ (donor 119, Table 14): 16 pg/mL | IFN-α (donor 120, Table 14): 2 pg/mL | IFN-γ (donor 120, Table 14): 40 pg/mL | IFN-γ induction when formulated with cPLGA, in words (formulated with cPLGA): induced IFN-γ only when formulated with cPLGA | IFN-α (pg/ml) mean (Table 14): 29 pg/mL | IFN-γ (pg/ml) mean (Table 14): 86 pg/mL | IFN-α induction, in words: did not induce IFN-α

5′-TCG-3′-(ab)3-5′-T-3′ [Compound C-91]
IFN-a (donor 28185, Table 15): 9 pg/mL | IFN-g (donor 28185, Table 15): 3 pg/mL | IFN-a (donor 28186, Table 15): 46 pg/mL | IFN-g (donor 28186, Table 15): 4 pg/mL | IFN-a (donor 28187, Table 15): 37 pg/mL | IFN-g (donor 28187, Table 15): 6 pg/mL | IFN-a (donor 28188, Table 15): 4 pg/mL | IFN-g (donor 28188, Table 15): 7 pg/mL | activity when formulated with cPLGA, in words (formulated with cPLGA): significant activity when formulated on cPLGA | IFN-a (pg/ml) mean [5]: 24 pg/mL | IFN-g (pg/ml) mean [5]: 5 pg/mL | IFN-a (pg/ml) ×2 (mean ×2, Table 15): 48 pg/mL | IFN-g (pg/ml) ×4 (mean ×4, Table 15): 20 pg/mL | immunomodulatory activity (IFN-γ / IFN-α secretion), in words: neither CIC was active on its own

OCCOCCOCCO [Triethylene glycol]
IFN-a (Table 25, donor 28250): 16 pg/mL | IFN-g [2]: 15 pg/mL | IFN-a (Table 25, donor 28251): 16 pg/mL | IFN-g (Table 25, donor 28251): 1 pg/mL | IFN-a (Table 25, donor 28252): 16 pg/mL | IFN-g (Table 25, donor 28252): 7 pg/mL | IFN-a (Table 25, donor 28253): 16 pg/mL | IFN-g (Table 25, donor 28253): 1 pg/mL | IFN-a mean [3]: 16 pg/mL | IFN-g mean [3]: 6 pg/mL
